pIC50: −log10 of the molar value. No end group written: not given here.
Tests used:
gel-filtered platelets = assay: In vitro inhibition of thrombin-induced gel-filtered platelet aggregation; assay type: cell-based; conditions: Homo sapiens; for inhibition at 50 µM: read-out: Platelet Aggregation % Inh. (50 μM)
Method: In Vitro Inhibition of Thrombin-Induced Gel-Filtered Platelet Aggression Assay
The percentage of platelet aggregation is calculated as an increase in light transmission of compound-treated platelet concentrate vs. control-treated platelet concentrate. Human blood was obtained from drug free, normal donors into tubes containing […] sodium citrate. Platelet rich plasma (PRP) was collected by centrifugation of whole blood at 200×g for 10 min at 25° C. The PRP (5 mL) was gel filtered through Sepharose 2B (bed volume 50 mL), and the platelet count was adjusted to 2×10^7 platelets per sample. The following constituents were added to a siliconized cuvette: concentrated platelet filtrate and Tyrode's buffer (0.14M NaCl, 0.0027M KCl, 0.012M NaHCO3,0.76 mM Na2 HPO4, 0.0055M glucose, 2 mg/mL BSA and 5.0 mM HEPES @ pH 7.4) in an amount equal to 350 μl, 50 μl of 20 mM calcium and 50 μl of the test compound. Aggregation was monitored in a BIODATA aggregometer for the 3 min following the addition of agonist (thrombin 50 μl of 1 unit/mL).

GPIIb/IIIa [1] = target: T1, GPIIb/IIIa (Homo sapiens, UniProt P05106+P08514); assay: In vitro solid phase purified glycoprotein IIb/IIIa binding assay (fibrinogen binding); conditions: for inhibition at 50 µM: read-out: Fibrinogen Binding % Inh. (50 μM)
Method: In Vito Solid Phase Purified Glycoprotein IIB/IIA Binding Assay
The plate was covered and incubated overnight at 4° C. The GPIIb/IIa solution was discarded and 150 μl of 5% BSA was added and incubated at RT for 1-3 h. The plate was washed extensively with modified Tyrodes buffer. Biotinylated fibrinogen (25 μl/well) at 2×final concentration was added to the wells that contain the test compounds (25 μl/well). The plate was covered and incubated at RT for 2-4 h. Twenty minutes prior to incubation completion, one drop of Reagent A (Vecta Stain ABC Horse Radish Peroxidase kit, Vector Laboratories, Inc.) and one drop Reagent B were added with mixing to 5 mL modified Tyrodes buffer mix and let stand. The ligand solution was discarded and the plate washed (5×200 μl/well) with modified Tyrodes buffer. Vecta Stain HRP-Biotin-Avidin reagent (50 μl/well, as prepared above) was added and incubated at RT for 15 min. The Vecta Stain solution was discarded and the wells washed (5×200 μl/well) with modified Tyrodes buffer. Developing buffer (10 mL of 50 mM citrate/phosphate buffer @ pH 5.3, 6 mg o-phenylenediamine, 6 μl 30% H2 O2; 50 μl/well) was added and incubated at RT for 3-5 min, and then 2N H2 SO4 (50 μl/well) was added. The absorbance was read at 490 nm.

[2] = system: ADP-induced ex vivo platelet aggregation; assay: Ex vivo dog study: duration of >50% inhibition of ADP-induced ex vivo platelet aggregation; assay type: in vivo; conditions: for Oral Dosing Duration (of >50% inhibition of ADP-induced ex vivo platelet aggregation): 1 mpk
Method: Adult mongrel dogs (8-13 kg) were anesthetized with sodium pentobarbital (35 mg/kg, i.v.) and artificially respired. Arterial blood pressure and heart rate were measured using a Millar catheter-tip pressure transducer inserted in a femoral artery. Another Millar transducer was placed in the left ventricle (LV) via a carotid artery to measure LV end diastolic pressure and indices of myocardial contractility. A lead II electrocardiogram was recorded from limb electrodes. Catheters were placed in a femoral artery and vein to sample blood and infuse drugs, respectively. Responses were continuously monitored using a Modular Instruments data acquisition system.
Arterial blood samples (5-9 ml) were withdrawn into tubes containing 3.8% sodium citrate to prepare platelet rich plasma (PRP) and to determine effects on coagulation parameters: prothrombin time (PT) and activated partial thromboplastin time (APTT). Separate blood samples (1.5 ml) were withdrawn in EDTA to determine hematocrit and cell counts (platelets, RBC's and white cells). Template bleeding times were obtained from the buccal surface using a symplate incision devise and Whatman filter paper.
Aggregation of PRP was performed using a BioData aggregometer. Aggregation of whole blood used a Chronolog impedance aggregometer. PT and APTT were determined on either a BioData or ACL 3000+ coagulation analyzer. Cells were counted with a Sysmex K-1000.
Compounds were solubilized in a small volume of dimethylformamide (DMF) and diluted with saline to a final concentration of 10% DMF. Compounds were administered by the intravenous route with a Harvard infusion pump. Doses was administered over a 15 min interval at a constant rate of 0.33 ml/min. Data were obtained after each dose and in 30 min intervals following the end of drug administration. Oral doses were administered as aqueous solutions via syringe.

[3] = system: in vitro thrombin-induced platelet aggregation; conditions: L. Alig, J. Med. Chem. 1992, 35, 4393; read-out: IC50 against in vitro thrombin-induced platelet aggregation; cited from earlier work
GPIIb/IIIa [4] = target: T1, GPIIb/IIIa; conditions: background statement; cited from earlier work

Molecule: CC1(C(=O)NC[C@H](NC(=O)OCc2ccccc2)C(=O)O)CCCn2c(CCC3CCNCC3)nnc21 (stereo partly drawn) [Compound 8, β-[[[5,6,7,8-Tetrahydro-8-methyl-3-[2-(4-piperidinyl)ethyl]-1,2,4-triazolo[4,3-a]pyridin-8-yl]carbonyl]amino]-αS-benzyloxycarbonylamino-protanoic acid]
- pIC50 (gel-filtered platelets): 5.68
- inhibition at 50 µM (gel-filtered platelets): 100%
- pIC50 (GPIIb/IIIa [1]): 7.74
- inhibition at 50 µM (GPIIb/IIIa [1]): 100%
- Oral Dosing Duration (of >50% inhibition of ADP-induced ex vivo platelet aggregation) [2]: < 30 min

Molecule: O=C(O)C[C@H](NC(=O)C1CCCn2c(/C=C/C3CCNCC3)nnc21)c1cccnc1 (stereo partly drawn) [Compound 12, β-[[[5,6,7,8-Tetrahydro-3-[2-(4-piperidinyl)E-ethylene]-1,2,4-triazolo[4,3-a]pyridin-8-yl]carbonyl]amino]-βS-3-pyridylpropanoic acid]
- pIC50 (gel-filtered platelets): 7.52
- inhibition at 50 µM (gel-filtered platelets): 100%
- pIC50 (GPIIb/IIIa [1]): 9.85
- inhibition at 50 µM (GPIIb/IIIa [1]): 100%
- Intravenous Dosing Duration (of >50% inhibition of ADP-induced ex vivo platelet aggregation) ([2]; intravenous, 0.1 mpk): 150 min
- Oral Dosing Duration (of >50% inhibition of ADP-induced ex vivo platelet aggregation) [2]: 360 min

Molecule: CN(CC(=O)c1ccc(OCC(=O)O)c(OCC(=O)O)c1)C(=O)c1ccc(C(=N)N)cc1 [Ro-438857]
- pIC50 [3]: 7.03

Molecule: Arg-Gly-Asp
- inhibition of fibrinogen binding to GPIIb/IIIa (GPIIb/IIIa [4]): shown to inhibit fibrinogen binding to GPIIb/IIIa

Molecule: HHLGGAKQAGDV [gamma-chain peptide region of fibrinogen (γ400-411)]
- inhibition of fibrinogen binding to GPIIb/IIIa (GPIIb/IIIa [4]): shown to inhibit fibrinogen binding to GPIIb/IIIa

Source: US6303625A, “Triazolopyridines for the treatment of thrombosis disorders” (Ortho-McNeil Pharmaceutical, Inc., priority 1999, dated 2001)
